In patent US11312726B2, “Thienodiazepine derivatives and application thereof” (priority 2017, dated 2022):

Legend:
BRD4-BD2 = BRD4-BD2 (Homo sapiens (Human), UniProt O60885); assay: BRD4 biochemical activity test (TR-FRET), BD2; details: read-out: BRD4 Binding (BD2), IC50
From the text: BRD4 Biochemical Activity Test
1) BRD4-BD1 and BRD4-BD2 proteins of BPS Company, polypeptide of ANASPEC Company, and test reagent of PerkinElmer Company were used in the experiments;
2) The TR-FRET experimental principle was used in the experiment to screen compounds.
3) Relevant control compounds
1) Preparation of the Compound Plate:
Preparation of the compound plate in the experiment was achieved by Echo:
2) Preparation of Reaction Reagents:
Relevant reaction reagents should be prepared on the day of the experiment:
a) Formulation of 1× assay buffer;
b) Formulation of 3× component solution for the experiment: […]
1. The reagent was taken out and placed on ice to naturally melt for later use;
2. “Solution A” (protein solution), “solution B” (polypeptide solution), and “solution C” (test reagent solution) used in the experiment were formulated with the 1× assay buffer, and during the formation of the 3× solution from the components used in the experiment reaction system, the amounts of solutions A, B and C must be enough for the required amounts in the experiment.
3) Experimental Operation Steps:
The experiment plate was a plate that contained a gradient concentration of the compound and a corresponding DMSO solution and was prepared with ECHO before the experiment:
a) The experiment plate was taken out, and 5 μL/well of “solution A” (protein solution) was added to columns 2-23 of the experiment plate, then 5 μL/well of 1× assay buffer was added to columns 1 and 24 of the experiment plate, and columns 1 and 24 were used as Min control in the experiment system;
b) Centrifugation at 1000 rpm was carried out for 30 seconds;
c) The plate was incubated at 23° C. for 20 minutes;
d) After 20 minutes of incubation, 5 μL/well of “solution B” (polypeptide solution) was added to columns 1-24 of the experiment plate;
e) Centrifugation at 1000 rpm was carried out for 30 seconds;
f) The plate was incubated at 23° C. for 20 minutes;
g) After 20 minutes of incubation, 5 μL/well of “solution C” (test reagent solution) was added to columns 1-24 of the experiment plate;
h) Centrifugation at 1000 rpm was carried out for 30 seconds;
i) The plate was incubated at 23° C. for 40 minutes;
j) The experiment plate was placed on EnVision to read the plate.
a) The corresponding Max control and Min control of each experiment plate were used to convert to the Z′ value of the experiment plate, and the Z′ value of each plate was ensured to be >0.5;
b) The IC50 value was calculated from the signal of the control compound by XLFIT5, and ensured to be maintained within 3 times of the average value of historical data.

[1] = system: Human breast cancer MDA-MB-231_luc cell subcutaneous xenograft tumor; assay: In vivo pharmacodynamics, MDA-MB-231_luc subcutaneous xenograft tumor model; details: 50 mg/kg PO BID × 21 days
Experimental: In Vivo Pharmacodynamics Study of Compound 32 on Human Breast Cancer MDA-MB-231_luc Cell Subcutaneous Xenograft Tumor Model
(§1) Strain: BALB/c nude mouse
(§2) Week-age and weight: 6-8 weeks of age, 18-22 grams of body weight
(§3) Supplier: Shanghai Sippr-BK laboratory animal Co. Ltd.
(§4) 3. Experiment Methods and Steps
Human breast cancer MDA-MB-231_luc cells were cultured in monolayer in vitro and the culture conditions were RPMI-1640 culture medium (supplier: Gibco; article number: 22400-089; manufacturing batch number: 4868546) with 10% fetal bovine serum, 100 U/ml penicillin and 100 μg/ml streptomycin. The culture was performed at 37° C. in 5% CO2. Conventional digestion treatment with pancreatin-EDTA for passage was carried out twice a week. When the cells were in the exponential growth phase, the cells were harvested, counted, and inoculated.
(§5) 3.2 Tumor Cell Inoculation
0.2 mL of 10×10^6 MDA-MB-231_luc cells were subcutaneously inoculated into the right-back of each nude mouse (PBS:Matrigel=1:1). The grouping and administration was started when the average tumor volume reached 100-150 mm^3.
3.3 Tumor Measurement and Experiment Indices
The experiment index was to investigate whether tumor growth was inhibited, delayed or cured. Tumor diameter was measured twice a week with vernier calipers. The equation for calculating the tumor volume was V=0.5×a×b^2, wherein a and b represented the major and minor diameters of the tumor, respectively.
The tumor inhibition effect of the compound was evaluated by TGI (%) or relative tumor proliferation rate T/C (%). TGI (%) reflected the tumor growth inhibition rate.
Relative tumor proliferation rate T/C (%) was calculated according to the below equation: T/C %=TRTV/CRTV×100% (TRTV: RTV of the treatment group; CRTV: RTV of the negative control group). The relative tumor volume (RTV) was calculated according to the results of the tumor measurement. The calculation equation was RTV=Vt/V0, where V0 was the average tumor volume measured at the grouping and administration (i.e. d0), and Vt was the average tumor volume at the time of a certain measurement. TRTV and CRTV were obtained from the data on the same day.
At the end of the experiment, the tumor weight would be measured and the Tweight/Cweight percentage would be calculated. Tweight and Cweight represented the tumor weights of the administration group and the medium control group, respectively.
Statistical analysis included mean value and standard error (SEM) of the tumor volume of each group at each time point. […] The comparison between two groups was analyzed by T-test, and the comparison between three or more groups was analyzed by one-way ANOVA.

[2] = system: Human prostatic cancer PC-3 cell subcutaneous xenograft tumor; assay: In vivo pharmacodynamics, PC-3 subcutaneous xenograft tumor model; details: 50 mg/kg PO BID × 21 days
Experimental: In Vivo Pharmacodynamics Study of Compound 32 on Human Prostatic Cancer PC-3 Cell Subcutaneous Xenograft Tumor Model
The formulation method of the test substance was the same as in Table 2, and the animal grouping and the dosage regimen were the same as in Table 3.
as §1, §2, §3, §4
Human prostatic cancer PC-3 cells were cultured in monolayer in vitro, and the culture conditions were F-12K culture medium (supplier: Gibco; article number: 21127-022; manufacturing batch number: 1868870) with 10% fetal bovine serum, 100 U/mL penicillin and 100 μg/mL streptomycin. The culture was performed at 37° C. in 5% CO2. Conventional digestion treatment with pancreatin-EDTA for passage was carried out twice a week. When the cells were in the exponential growth phase, the cells were harvested, counted, and inoculated.
as §5
0.1 mL of 10×10^6 PC-3 cells were subcutaneously inoculated into the right-back of each nude mouse. The grouping and administration was started when the average tumor volume reached 100-150 mm^3.
3.3 Tumor Measurement, Experiment Indices, and Statistical Analysis were the Same as MDA-MB-231 Model

SMILES: Cc1sc2c(c1C)C(c1ccc(Cl)cc1)=N[C@@H](CC(=O)Nc1ccc3c(c1)COC3=O)c1nnc(C)n1-2 [Compound 32]
- IC50 (BRD4-BD2): 10 nM
- change in body weight of the animals [1]: no significant change
- tolerance of the animals [1]: well tolerated
- relative tumor proliferation rate T/C ([1]; 21st day after administration): 52.99%
- tumor growth inhibition rate TGI ([1]; 21st day after administration): 54.85%
- tolerance of the animals [2]: well tolerated
- tumor inhibition effect compared with solvent control ([2]; 21st day): significant tumor inhibition effect
- relative tumor proliferation rate T/C ([2]; 21st day after administration): 44.63%
- tumor growth inhibition rate TGI ([2]; 21st day after administration): 58.4%
